From paper PMC3062473 (ChemMedChem, 2010)

Experiments:
Caspase 4 [1] = target: T1, Caspase 4 (Homo sapiens, UniProt P49662); assay: Reaction Biology caspase panel; type: biochemical; settings: read-out: Caspase 4 IC50; (Z-LEHD)2-R110 substrate; three separate experiments
T1 sequence (P49662 81-270 limits assumed): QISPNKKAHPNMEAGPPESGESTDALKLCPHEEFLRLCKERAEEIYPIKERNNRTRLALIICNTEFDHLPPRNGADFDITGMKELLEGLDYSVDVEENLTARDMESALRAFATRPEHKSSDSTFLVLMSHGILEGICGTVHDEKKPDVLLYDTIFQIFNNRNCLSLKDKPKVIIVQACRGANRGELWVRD
T1 sequence (P49662 290-377 limits assumed): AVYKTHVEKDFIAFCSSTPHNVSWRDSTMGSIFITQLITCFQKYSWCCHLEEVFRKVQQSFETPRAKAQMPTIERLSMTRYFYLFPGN

Caspase 10 = target: T2, Caspase 10 (Homo sapiens, UniProt Q92851); assay: Reaction Biology caspase panel; type: biochemical; settings: read-out: Caspase 10 IC50; (Z-LEHD)2-R110 substrate; three separate experiments
T2 sequence (Q92851 220-415 limits assumed): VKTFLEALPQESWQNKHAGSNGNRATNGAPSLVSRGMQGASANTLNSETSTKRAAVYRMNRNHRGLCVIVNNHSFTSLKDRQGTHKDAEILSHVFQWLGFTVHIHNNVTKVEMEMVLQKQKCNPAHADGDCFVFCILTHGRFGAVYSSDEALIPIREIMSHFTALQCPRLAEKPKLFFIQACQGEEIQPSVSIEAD
T2 sequence (Q92851 416-521 limits assumed): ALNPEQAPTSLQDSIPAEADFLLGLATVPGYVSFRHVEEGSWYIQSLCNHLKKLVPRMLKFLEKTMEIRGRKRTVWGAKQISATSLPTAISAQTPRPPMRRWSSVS

Caspase 5 = target: T3, Caspase 5 (Homo sapiens, UniProt P51878); assay: Reaction Biology caspase panel; type: biochemical; settings: read-out: Caspase 5 IC50; (Z-LEHD)2-R110 substrate; three separate experiments
T3 sequence (P51878 137-327 limits assumed): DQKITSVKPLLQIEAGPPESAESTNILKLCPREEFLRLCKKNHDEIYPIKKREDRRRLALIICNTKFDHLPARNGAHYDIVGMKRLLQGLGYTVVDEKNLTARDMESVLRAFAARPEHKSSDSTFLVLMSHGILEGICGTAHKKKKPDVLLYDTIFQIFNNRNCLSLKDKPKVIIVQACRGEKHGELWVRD
T3 sequence (P51878 347-434 limits assumed): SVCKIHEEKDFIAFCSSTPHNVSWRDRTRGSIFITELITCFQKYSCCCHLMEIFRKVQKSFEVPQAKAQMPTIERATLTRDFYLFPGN

Caspase 6 = target: T4, Caspase 6 (Homo sapiens, UniProt P55212); settings: read-out: Ki caspase 6; cited from earlier work
T4 sequence (P55212 24-179 limits assumed): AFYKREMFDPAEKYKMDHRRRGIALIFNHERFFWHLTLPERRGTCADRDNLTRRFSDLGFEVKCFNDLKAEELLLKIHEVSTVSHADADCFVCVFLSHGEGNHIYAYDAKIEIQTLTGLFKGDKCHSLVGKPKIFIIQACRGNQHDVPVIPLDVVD
T4 sequence (P55212 194-293 limits assumed): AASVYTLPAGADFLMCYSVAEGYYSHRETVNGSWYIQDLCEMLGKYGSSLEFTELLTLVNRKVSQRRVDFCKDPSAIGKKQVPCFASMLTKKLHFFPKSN

Caspase 4 [2] = target: T1, Caspase 4; settings: read-out: Ki caspase 4; cited from earlier work
trypsin = settings: cited from earlier work

Work on `CC(C)(C)[C@H](NC(=O)c1ccc(N)c(Cl)c1)C(=O)N1CCC[C@H]1C(=O)N[C@H](C=O)CC(=O)O` [Compound 2b, reference compound] yielded an IC50 (Caspase 4 [1]) of 14.5 nM, an IC50 (Caspase 10) of 66.5 nM and an IC50 (Caspase 5) of 10.6 nM. The Ki (Caspase 6) was 560 nM, the Ki (Caspase 4 [2]) was < 1 nM and the activity against trypsin (trypsin) was “little activity”.
